In experiment [1] the test system is HL-60. Nature of the experiment: Inhibitory activity against calcium ionophore induced Leukotriene B4 biosynthesis by the promyelocytic leukemia cell line HL-60 at concentrations of 10e-6 M; A - good inhibitory activity. The settings on record: Homo sapiens. Format: functional, cell-based.
Experiment [2] has as its target T1, Leukotriene A-4 hydrolase (Homo sapiens) (UniProt P09960).
T1 sequence (whole entry): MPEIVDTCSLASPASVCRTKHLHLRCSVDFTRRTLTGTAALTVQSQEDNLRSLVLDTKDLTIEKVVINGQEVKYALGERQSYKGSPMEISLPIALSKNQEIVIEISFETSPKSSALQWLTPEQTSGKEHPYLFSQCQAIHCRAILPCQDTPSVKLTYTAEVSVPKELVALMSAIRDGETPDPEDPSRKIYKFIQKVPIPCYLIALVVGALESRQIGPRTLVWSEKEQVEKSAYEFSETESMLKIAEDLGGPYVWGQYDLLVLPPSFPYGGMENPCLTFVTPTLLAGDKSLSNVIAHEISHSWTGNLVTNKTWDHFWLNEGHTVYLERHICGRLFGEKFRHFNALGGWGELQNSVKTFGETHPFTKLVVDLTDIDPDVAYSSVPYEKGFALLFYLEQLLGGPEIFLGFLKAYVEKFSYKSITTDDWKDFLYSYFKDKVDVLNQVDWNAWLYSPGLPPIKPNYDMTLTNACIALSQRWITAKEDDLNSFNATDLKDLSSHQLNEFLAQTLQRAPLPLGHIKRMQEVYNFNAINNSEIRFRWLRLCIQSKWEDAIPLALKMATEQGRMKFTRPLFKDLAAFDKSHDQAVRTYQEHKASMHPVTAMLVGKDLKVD
The experiment in a line: Inhibition of Leukotriene B4 by inhibiting the conversion of Leukotriene A4 by a purified Leukotriene A4 hydrolase; IE - ineffective.

As for `CCCCCCCCCC/C=C/C1=C[C@@H]2CC[C@@]1(CCCC(=O)O)O2`, the Activity result is listed as “A” in experiment [1] and “Ineffective” in experiment [2].
With `CCCCCCCC/C=C\C=C\C1=C[C@@H]2CC[C@@]1(CCCC(=O)O)O2`, the Activity result is “A” in experiment [1] and “Ineffective” in experiment [2].

Values taken from ChEMBL document CHEMBL1126359, “Synthesis and pharmacological activity of rationally designed inhibitors of the leukotriene A4 hydrolase enzyme” (Bioorg Med Chem Lett, 1992).
